# Measurements reported in ChEMBL document CHEMBL1144933, “Novel bioactive and stable neurotensin peptide analogues capable of delivering radiopharmaceuticals and molecular beacons to tumors” (J Med Chem, 2003).
# *1 amine or outer side, *2 acyl side, *3 side chain or, on linkers, in order; H or OH if unused. Where a SMILES comes first, the peptide text is derived from it. [ ]: non-standard residue; d: D form. The star is where a group is joined. Abu(1-amidino-4-piperidyl) = N=C(N)N1CCC(CC[C@H](N)C(=O)O)CC1; Gly(1-amidinopiperidin-4-yl) = N=C(N)N1CCC([C@H](N)C(=O)O)CC1; Ala(1-amidino-4-piperidyl) = N=C(N)N1CCC(C[C@H](N)C(=O)O)CC1; FITC = O=C1OC2(c3ccc(O)cc3Oc3cc(O)ccc32)c2ccc(NC(=S)*)cc21; DTPA = O=C(O)CN(CCN(CC(=O)O)CC(=O)O)CCN(CC(=O)O)CC(=O)*; Phe(4-guanidino) = N=C(N)Nc1ccc(C[C@H](N)C(=O)O)cc1; Gly(piperidin-4-yl) = N[C@H](C(=O)O)C1CCNCC1; X1 = NCC1CCC(C[C@H](N[*:1])C(=O)[*:2])CC1; Tle = CC(C)(C)[C@H](N)C(=O)O
# Biological target: Neurotensin receptor type 1 (Homo sapiens, UniProt P30989)
# Sequence (P30989 whole entry): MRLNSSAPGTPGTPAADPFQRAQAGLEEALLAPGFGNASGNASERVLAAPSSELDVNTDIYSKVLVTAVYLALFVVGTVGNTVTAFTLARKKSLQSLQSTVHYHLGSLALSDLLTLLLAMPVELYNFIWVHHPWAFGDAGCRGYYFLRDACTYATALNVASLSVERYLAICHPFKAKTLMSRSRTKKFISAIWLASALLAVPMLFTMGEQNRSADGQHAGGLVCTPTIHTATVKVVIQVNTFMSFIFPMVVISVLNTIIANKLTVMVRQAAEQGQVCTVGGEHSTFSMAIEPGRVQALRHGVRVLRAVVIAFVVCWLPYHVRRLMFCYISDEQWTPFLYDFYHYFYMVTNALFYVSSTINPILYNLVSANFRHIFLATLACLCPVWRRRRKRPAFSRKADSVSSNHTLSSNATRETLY
# Test: Binding affinity towards neurotensin receptor in membranes prepared from HT-29 cell line, relative to [111In]-labeled neurotensin peptide
# Details: not given
row,Compound,IC50
1,CC[C@H](C)[C@H](NC(=O)[C@H](Cc1ccc(O)cc1)NC(=O)[C@@H]1CCCN1C(=O)[C@H](CCCN=C(N)N)NC(=O)[C@H](Cc1ccc(NC(=N)N)cc1)NC(=O)[C@@H]1CCCN1C(=O)[C@@H](CCCCN)NC(=O)CN(CCN(CCN(CC(=O)O)CC(=O)O)CC(=O)O)CC(=O)O)C(=O)N[C@@H](CC(C)C)C(=O)O,0.5 nM
2,CC[C@H](C)[C@H](NC(=O)[C@H](Cc1ccc(O)cc1)NC(=O)[C@@H]1CCCN1C(=O)[C@H](Cc1ccc(N=C(N)N)cc1)NC(=O)[C@H](CCCNC(=N)N)NC(=O)[C@@H]1CCCN1C(=O)[C@@H](CCCCN)NC(=O)CN(CCN(CCN(CC(=O)O)CC(=O)O)CC(=O)O)CC(=O)O)C(=O)N[C@@H](CC(C)C)C(=O)O,0.4 nM
3,CC(C)(C)[C@H](NC(=O)[C@H](Cc1ccc(O)cc1)NC(=O)[C@@H]1CCCN1C(=O)[C@H](CCCN=C(N)N)NC(=O)[C@@H](NC(=O)[C@@H]1CCCN1C(=O)[C@H](CCCCN)NC(=O)[C@H](CC(N)=O)NC(=O)[C@H](CCC(=O)O)NC(=O)[C@@H](Cc1ccc(O)cc1)NC(=O)CN(CCN(CCN(CC(=O)O)CC(=O)O)CC(=O)O)CC(=O)O)C1CCN(C(=N)N)CC1)C(=O)N[C@@H](CC1CCCCC1)C(=O)O,0.6 nM
4,CC(C)(C)C[C@H](NC(=O)[C@@H](NC(=O)[C@H](Cc1ccc(O)cc1)NC(=O)[C@@H]1CCCN1C(=O)[C@H](CCCNC(=N)N)NC(=O)[C@@H](NC(=O)[C@@H]1CCCN1C(=O)[C@H](CCCCN)NC(=O)[C@H](CC(N)=O)NC(=O)[C@H](CCC(=O)O)NC(=O)[C@@H](Cc1ccc(O)cc1)NC(=O)CN(CCN(CCN(CC(=O)O)CC(=O)O)CC(=O)O)CC(=O)O)C1CCN(C(=N)N)CC1)C(C)(C)C)C(=O)O,0.4 nM
5,CC(C)C[C@H](NC(=O)[C@@H](NC(=O)[C@H](Cc1ccc(O)cc1)NC(=O)[C@@H]1CCCN1C(=O)[C@H](CCCN=C(N)N)NC(=O)[C@@H](NC(=O)[C@@H]1CCCN1C(=O)[C@H](CCCCN)NC(=O)[C@H](CC(N)=O)NC(=O)[C@H](CCC(=O)O)NC(=O)[C@@H](Cc1ccc(O)cc1)NC(=O)CN(CCN(CCN(CC(=O)O)CC(=O)O)CC(=O)O)CC(=O)O)C1CCN(C(=N)N)CC1)C(C)(C)C)C(=O)O,1.5 nM
6,CC(C)C[C@H](NC(=O)[C@@H](NC(=O)[C@H](Cc1ccc(O)cc1)NC(=O)[C@@H]1CCCN1C(=O)[C@H](CCCN=C(N)N)NC(=O)[C@@H](NC(=O)[C@@H]1CCCN1C(=O)[C@H](CC1CCC(CN)CC1)NC(=O)CN(CCN(CCN(CC(=O)O)CC(=O)O)CC(=O)O)CC(=O)O)C1CCN(C(=N)N)CC1)C(C)(C)C)C(=O)O (stereo partly drawn) ({DTPA}-[X1]P[Gly(1-amidinopiperidin-4-yl)]RPY[Tle]L-OH),0.3 nM
7,CC(C)C[C@H](NC(=O)[C@@H](NC(=O)[C@H](Cc1ccc(O)cc1)NC(=O)[C@@H]1CCCN1C(=O)[C@H](CCCN=C(N)N)NC(=O)[C@H](Cc1ccc(NC(=N)N)cc1)NC(=O)[C@@H]1CCCN1C(=O)[C@@H](CCCCN)NC(=O)CN(CCN(CCN(CC(=O)O)CC(=O)O)CC(=O)O)CC(=O)O)C(C)(C)C)C(=O)O ({DTPA}-[dK]P[Phe(4-guanidino)]RPY[Tle]L-OH),24.6 nM
8,CC[C@H](C)[C@H](NC(=O)[C@H](Cc1ccc(O)cc1)NC(=O)[C@@H]1CCCN1C(=O)[C@H](Cc1ccc(NC(=N)N)cc1)NC(=O)[C@H](Cc1ccc(NC(=N)N)cc1)NC(=O)[C@@H]1CCCN1C(=O)[C@@H](CCCCN)NC(=O)CN(CCN(CCN(CC(=O)O)CC(=O)O)CC(=O)O)CC(=O)O)C(=O)N[C@@H](CC(C)C)C(=O)O ({DTPA}-[dK]P[Phe(4-guanidino)][Phe(4-guanidino)]PYIL-OH),22.1 nM

# The next lines start with the values.
row,IC50,Compound
1,11.5 nM,CC(C)C[C@H](NC(=O)[C@@H](NC(=O)[C@H](Cc1ccc(O)cc1)NC(=O)[C@@H]1CCCN1C(=O)[C@H](CCCNC(=N)N)NC(=O)[C@@H](NC(=O)[C@H](CCCN=C(N)N)NC(=O)[C@@H]1CCN1C(=O)[C@@H](CCCCN)NC(=O)CN(CCN(CCN(CC(=O)O)CC(=O)O)CC(=O)O)CC(=O)O)C1CCN(C(=N)N)CC1)C(C)(C)C)C(=O)O
2,21.7 nM,CC(C)(C)C[C@H](NC(=O)[C@@H](NC(=O)[C@H](Cc1ccc(O)cc1)NC(=O)[C@@H]1CCCN1C(=O)[C@H](CCCN=C(N)N)NC(=O)[C@@H](NC(=O)[C@@H]1CCCN1C(=O)[C@@H](CCCCN)NC(=O)CN(CCN(CCN(CC(=O)O)CC(=O)O)CC(=O)O)CC(=O)O)C1CCN(C(=N)N)CC1)C(C)(C)C)C(=O)O
3,11.7 nM,CC(C)(C)[C@H](NC(=O)[C@H](Cc1ccc(O)cc1)NC(=O)[C@@H]1CCCN1C(=O)[C@H](CCCN=C(N)N)NC(=O)[C@@H](NC(=O)[C@@H]1CCCN1C(=O)[C@@H](CCCCN)NC(=O)CN(CCN(CCN(CC(=O)O)CC(=O)O)CC(=O)O)CC(=O)O)C1CCN(C(=N)N)CC1)C(=O)N[C@@H](CC1CCCCC1)C(=O)O
4,113 nM,CC(C)C[C@H](NC(=O)[C@@H](NC(=O)[C@H](Cc1ccc(O)cc1)NC(=O)[C@@H]1CCN1C(=O)[C@H](CCCN=C(N)N)NC(=O)[C@@H](NC(=O)[C@H](CCCN=C(N)N)NC(=O)[C@@H]1CCCN1C(=O)[C@@H](CCCCN)NC(=O)CN(CCN(CCN(CC(=O)O)CC(=O)O)CC(=O)O)CC(=O)O)C1CCN(C(=N)N)CC1)C(C)(C)C)C(=O)O
5,42.4 nM,CC(C)(C)[C@H](NC(=O)[C@H](Cc1ccc(O)cc1)NC(=O)[C@@H]1CCCN1C(=O)[C@H](CCCNC(=N)N)NC(=O)[C@@H](NC(=O)[C@@H]1CCCN1C(=O)[C@@H](CCCCN)NC(=O)CN(CCN(CCN(CC(=O)O)CC(=O)O)CC(=O)O)CC(=O)O)C1CCN(C(=N)N)CC1)C(=O)N[C@@H](CC1CCCC1)C(=O)O
6,6.3 nM,CC(C)C[C@H](NC(=O)[C@@H](NC(=O)[C@H](Cc1ccc(O)cc1)NC(=O)[C@@H]1CCCN1C(=O)[C@H](CCCNC(=N)N)NC(=O)[C@H](CCC1CCN(C(=N)N)CC1)NC(=O)[C@@H]1CCCN1C(=O)[C@@H](CCCCN)NC(=O)CN(CCN(CCN(CC(=O)O)CC(=O)O)CC(=O)O)CC(=O)O)C(C)(C)C)C(=O)O ({DTPA}-[dK]P[Abu(1-amidino-4-piperidyl)]RPY[Tle]L-OH)
7,2.5 nM,CC(C)C[C@H](NC(=O)[C@@H](NC(=O)[C@H](Cc1ccc(O)cc1)NC(=O)[C@@H]1CCCN1C(=O)[C@H](CCCNC(=N)N)NC(=O)[C@H](CC1CCN(C(=N)N)CC1)NC(=O)[C@@H]1CCCN1C(=O)[C@@H](CCCCN)NC(=O)CN(CCN(CCN(CC(=O)O)CC(=O)O)CC(=O)O)CC(=O)O)C(C)(C)C)C(=O)O ({DTPA}-[dK]P[Ala(1-amidino-4-piperidyl)]RPY[Tle]L-OH)

# Same assay, conditions: ht-29
row,Compound,IC50
1,CC[C@H](C)[C@H](NC(=O)[C@H](Cc1ccc(O)cc1)NC(=O)[C@@H]1CCCN1C(=O)[C@H](CCCN=C(N)N)NC(=O)[C@H](CCc1ccnc(N)n1)NC(=O)[C@@H]1CCCN1C(=O)[C@@H](CCCCN)NC(=O)CN(CCN(CCN(CC(=O)O)CC(=O)O)CC(=O)O)CC(=O)O)C(=O)N[C@@H](CC(C)C)C(=O)O,10.2 nM
2,CC[C@H](C)[C@H](NC(=O)[C@H](Cc1ccc(O)cc1)NC(=O)[C@@H]1CCCN1C(=O)[C@H](CCCN=C(N)N)NC(=O)[C@@H](NC(=O)[C@@H]1CCCN1C(=O)[C@@H](CCCCNC(=S)Nc1ccc2c(c1)C(=O)OC21c2ccc(O)cc2Oc2cc(O)ccc21)NC(=S)Nc1ccc2c(c1)C(=O)OC21c2ccc(O)cc2Oc2cc(O)ccc21)C1CCN(C(=N)N)CC1)C(=O)N[C@@H](CC(C)C)C(=O)O,3.4 nM
3,CC[C@H](C)[C@H](NC(=O)[C@H](Cc1ccc(O)cc1)NC(=O)[C@@H]1CCCN1C(=O)[C@H](CCCN=C(N)N)NC(=O)[C@@H](NC(=O)[C@@H]1CCCN1C(=O)[C@H](N)CCCCNC(=S)Nc1ccc2c(c1)C(=O)OC21c2ccc(O)cc2Oc2cc(O)ccc21)C1CCN(C(=N)N)CC1)C(=O)N[C@@H](CC(C)C)C(=O)O,0.6 nM
4,CC[C@H](C)[C@H](NC(=O)[C@H](Cc1ccc(O)cc1)NC(=O)[C@@H]1CCCN1C(=O)[C@H](CCCNC(=N)N)NC(=O)[C@@H](NC(=O)[C@@H]1CCCN1C(=O)[C@@H](CCCCN)NC(=S)Nc1ccc2c(c1)C(=O)OC21c2ccc(O)cc2Oc2cc(O)ccc21)C1CCN(C(=N)N)CC1)C(=O)N[C@@H](CC(C)C)C(=O)O,1.2 nM
5,CC(C)C[C@H](NC(=O)[C@@H](NC(=O)[C@H](Cc1ccc(O)cc1)NC(=O)[C@@H]1CCCN1C(=O)[C@H](CCCN=C(N)N)NC(=O)[C@@H](NC(=O)[C@@H]1CCCN1C(=O)[C@@H](NC(=S)Nc1ccc2c(c1)C(=O)OC21c2ccc(O)cc2Oc2cc(O)ccc21)C1CCNCC1)C1CCN(C(=N)N)CC1)C(C)(C)C)C(=O)O ({FITC}-[Gly(piperidin-4-yl)]P[Gly(1-amidinopiperidin-4-yl)]RPY[Tle]L-OH),0.5 nM

# Next, values leading:
row,IC50,Compound
1,0.6 nM,CC(C)C[C@H](NC(=O)[C@@H](NC(=O)[C@@H](Cc1ccc(O)cc1)NC(=O)[C@@H]1CCCN1C(=O)[C@H](CCCN=C(N)N)NC(=O)[C@@H](NC(=O)[C@@H]1CCCN1C(=O)[C@@H](CCCCN)NC(=O)CN(CCN(CCN(CC(=O)O)CC(=O)O)CC(=O)O)CC(=O)O)C1CCN(C(=N)N)CC1)C(C)(C)C)C(=O)O
2,106 nM,CC(C)C[C@H](NC(=O)[C@@H](NC(=O)[C@H](Cc1cccc(O)c1)NC(=O)[C@@H]1CCCN1C(=O)[C@H](CCCN=C(N)N)NC(=O)[C@@H](NC(=O)[C@@H]1CCCN1C(=O)[C@@H](CCCCN)NC(=O)CN(CCN(CCN(CC(=O)O)CC(=O)O)CC(=O)O)CC(=O)O)C1CCN(C(=N)N)CC1)C(C)(C)C)C(=O)O
3,59.6 nM,CC(C)C[C@H](NC(=O)[C@@H](NC(=O)[C@H](Cc1ccc(O)cc1)NC(=O)[C@@H]1CCCN1C(=O)[C@@H](NC(=O)[C@@H](NC(=O)[C@@H]1CCCN1C(=O)[C@@H](CCCCN)NC(=O)CN(CCN(CCN(CC(=O)O)CC(=O)O)CC(=O)O)CC(=O)O)C1CCN(C(=N)N)CC1)C1CCNCC1)C(C)(C)C)C(=O)O
4,0.4 nM,CC(C)C[C@H](NC(=O)[C@@H](NC(=O)[C@H](Cc1ccc(O)cc1)NC(=O)[C@@H]1CCCN1C(=O)[C@H](CCCN=C(N)N)NC(=O)[C@@H](NC(=O)[C@@H]1CCCN1C(=O)[C@@H](CCCCN)NC(=O)CN(CCN(CCN(CC(=O)O)CC(=O)O)CC(=O)O)CC(=O)O)C1CCN(C(=N)N)CC1)C(C)(C)C)C(=O)O
5,> 1000 nM,CC(C)C[C@H](NC(=O)[C@@H](NC(=O)[C@H](Cc1ccc(O)cc1)NC(=O)[C@@H]1CCCN1C(=O)[C@H](CCCNC(=N)N)NC(=O)[C@@H](NC(=O)[C@@H]1CCCN1C(=O)[C@H](CC1CCN(C(=N)N)CC1)NC(=O)CN(CCN(CCN(CC(=O)O)CC(=O)O)CC(=O)O)CC(=O)O)C1CCN(C(=N)N)CC1)C(C)(C)C)C(=O)O ({DTPA}-[Ala(1-amidino-4-piperidyl)]P[Gly(1-amidinopiperidin-4-yl)]RPY[Tle]L-OH)
